Results: US9221796B2, “Selective NR2B antagonists” (BRISTOL-MYERS SQUIBB COMPANY, priority 2014, dated 2015)

Molecular target: NR2B-subtype NMDA receptors (Rattus norvegicus (Rat), UniProt P35439+Q00960)
Assay: Radioligand binding assay (3H Ro 25-6981 competition, forebrain membranes)
Details: 3H Ro 25-6981 (4 nM), read-out: NR2B Binding Ki
Description: Radioligand Binding Assay. […] Buchy D; Klingelschmidt A; Messer J; Bleuel Z; Kemp J A; Richards J G. […] Thawed brains were homogenized using a Dounce homogenizer and centrifuged at 48000×g for 20 min. The pellet was resuspended in cold buffer and homogenized again using a Dounce homogenizer. […] After incubation for 1 hr at room temperature, the membrane bound radioligand was harvested on to GF/B filter plates (treated with 0.5% PEI for 1 hr at room temperature). The filter plates were dried at 50° C. for 20 mins, incubated with microscint 20 for 10 minutes and finally, the counts were read on TopCount (Perkin Elmer). […] CPM values were converted to % inhibition and the concentration response curves were plotted using custom made software. Each experiment was repeated at least twice to obtain the final binding Ki values for experimental compounds.

Chain of NR2B-subtype NMDA receptors (Q00960 27-1482, other chains not shown): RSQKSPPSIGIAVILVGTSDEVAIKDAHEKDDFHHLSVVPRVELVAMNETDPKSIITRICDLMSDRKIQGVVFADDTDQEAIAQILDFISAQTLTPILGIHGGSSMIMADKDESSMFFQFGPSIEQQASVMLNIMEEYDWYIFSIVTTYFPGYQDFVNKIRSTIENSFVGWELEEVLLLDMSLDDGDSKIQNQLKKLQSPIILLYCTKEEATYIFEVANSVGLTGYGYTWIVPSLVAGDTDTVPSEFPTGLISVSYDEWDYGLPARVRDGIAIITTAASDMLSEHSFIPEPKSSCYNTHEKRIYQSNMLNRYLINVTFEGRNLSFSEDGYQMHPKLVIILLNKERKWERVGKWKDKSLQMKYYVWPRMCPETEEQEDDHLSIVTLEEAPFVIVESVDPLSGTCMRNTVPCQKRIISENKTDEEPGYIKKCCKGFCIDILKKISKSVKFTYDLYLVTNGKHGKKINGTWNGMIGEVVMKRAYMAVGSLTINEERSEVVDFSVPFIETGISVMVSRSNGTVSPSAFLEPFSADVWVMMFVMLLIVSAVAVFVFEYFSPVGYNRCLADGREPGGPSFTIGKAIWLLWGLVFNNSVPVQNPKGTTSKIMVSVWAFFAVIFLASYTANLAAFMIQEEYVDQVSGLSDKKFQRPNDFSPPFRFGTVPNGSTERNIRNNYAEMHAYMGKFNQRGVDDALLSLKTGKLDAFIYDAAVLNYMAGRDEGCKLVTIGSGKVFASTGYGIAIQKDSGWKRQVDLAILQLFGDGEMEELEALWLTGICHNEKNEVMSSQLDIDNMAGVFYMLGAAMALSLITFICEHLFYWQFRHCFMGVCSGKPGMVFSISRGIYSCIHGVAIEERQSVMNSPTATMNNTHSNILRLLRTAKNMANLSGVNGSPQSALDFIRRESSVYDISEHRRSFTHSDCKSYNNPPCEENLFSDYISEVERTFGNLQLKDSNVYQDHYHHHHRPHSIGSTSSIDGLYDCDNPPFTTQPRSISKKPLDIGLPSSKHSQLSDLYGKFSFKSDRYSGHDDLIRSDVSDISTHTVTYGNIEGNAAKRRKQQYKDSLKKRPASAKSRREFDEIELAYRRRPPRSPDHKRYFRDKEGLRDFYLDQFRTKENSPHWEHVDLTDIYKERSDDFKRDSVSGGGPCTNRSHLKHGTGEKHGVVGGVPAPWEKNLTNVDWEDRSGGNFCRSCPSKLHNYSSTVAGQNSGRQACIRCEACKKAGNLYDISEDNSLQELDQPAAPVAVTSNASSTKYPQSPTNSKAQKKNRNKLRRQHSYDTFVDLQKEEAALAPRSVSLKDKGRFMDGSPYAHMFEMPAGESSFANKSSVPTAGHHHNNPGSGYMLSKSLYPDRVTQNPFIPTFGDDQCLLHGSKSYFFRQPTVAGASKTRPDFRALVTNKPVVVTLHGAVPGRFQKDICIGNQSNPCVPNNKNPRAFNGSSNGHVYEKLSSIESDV

Structure (SMILES)	Ki [nM]
O=C1[C@H](N2CCC(c3ccc(O)cc3)CC2)CCN1Cc1ccc(Cl)cc1 [Example 18b, (R)-1-(4-Chlorobenzyl)-3-(4-(4-hydroxyphenyl)piperidin-1-yl)pyrrolidin-2-one]	1.5
O=C1C(N2CC[C@@H](c3ccc(O)cc3)[C@H](F)C2)CCN1Cc1ccc(Cl)c(Cl)c1 (stereo partly drawn) [Example 70, 1-(3,4-Dichlorobenzyl)-3-((3S,4S)-3-fluoro-4-(4-hydroxyphenyl)piperidin-1-yl)pyrrolidin-2-one]	180
O=C1C(N2CCC(c3ccc(O)cc3)C(F)(F)C2)CCN1Cc1ccc(C(F)(F)F)cc1 (single isomer, unassigned) [Example 53, P-1, 3-(3,3-Difluoro-4-(4-hydroxyphenyl)piperidin-1-yl)-1-(4-(trifluoromethyl)-benzyl)pyrrolidin-2-one]	1100
O=C1[C@H](N2CC[C@H](c3ccc(O)cc3)[C@@H](F)C2)CCN1Cc1ccc(Cl)cc1 [Example 81, (R)-1-(4-Chlorobenzyl)-3-((3R,4R)-3-fluoro-4-(4-hydroxyphenyl)piperidin-1-yl)pyrrolidin-2-one]	3.8
C[C@@H](c1ccc(F)cc1)N1CC[C@@H](N2CC[C@@H](c3ccc(O)cc3)[C@H](F)C2)C1=O [Example 50, P-4, (R)-3-((3S,4S)-3-fluoro-4-(4-hydroxyphenyl)piperidin-1-yl)-1-((S)-1-(4-fluorophenyl)-ethyl)pyrrolidin-2-one]	1300
O=C1C(N2CCC(c3ccc(O)cc3)C(F)(F)C2)CCN1Cc1ccc(C(F)(F)F)cc1 (centres unmarked) [Example 110, 3-(3,3-Difluoro-4-(4-hydroxyphenyl)piperidin-1-yl)-1-(4-(trifluoromethyl)benzyl)-pyrrolidin-2-one]	36
Cc1cccc(CN2CCC(N3CCC(c4ccc(O)cc4)C(F)(F)C3)C2=O)c1 (centres unmarked) [Example 93, 3-(3,3-Difluoro-4-(4-hydroxyphenyl)piperidin-1-yl)-1-(3-methylbenzyl)pyrrolidin-2-one]	67
O=C1C(N2CCC(c3ccc(O)cc3)C(F)(F)C2)CCN1Cc1ccc(Cl)c(Cl)c1 (centres unmarked) [Example 109, 1-(3,4-Dichlorobenzyl)-3-(3,3-difluoro-4-(4-hydroxyphenyl)piperidin-1-yl)pyrrolidin-2-one]	290
O=C1C(N2CCC(c3ccc(O)cc3)CC2)CCN1Cc1ccc(OC(F)F)cc1 (centres unmarked) [Example 7, 1-(4-(Difluoromethoxy)benzyl)-3-(4-(4-hydroxyphenyl)piperidin-1-yl)pyrrolidin-2-one]	37
O=C1[C@@H](N2CCC(c3ccc(O)cc3)CC2)CCN1Cc1ccc(O)cc1 [Example 25a, (S)-1-(4-Hydroxybenzyl)-3-(4-(4-hydroxyphenyl)piperidin-1-yl)pyrrolidin-2-one]	1200
O=C1C(N2CC[C@@H](c3ccc(O)cc3)[C@H](F)C2)CCN1Cc1ccc(F)c(Cl)c1 (stereo partly drawn) [Example 73, 1-(3-Chloro-4-fluorobenzyl)-3-((3S,4S)-3-fluoro-4-(4-hydroxyphenyl)piperidin-1-yl)pyrrolidin-2-one]	330
O=C1[C@H](N2CCC(c3ccc(O)cc3)C(F)(F)C2)CCN1Cc1ccc(Cl)c(F)c1 (single isomer, unassigned) [Example 107, P-2]	7.7
O=C1C(N2CCCC(c3ccc(O)cc3)CC2)CCN1Cc1ccc(F)cc1 (centres unmarked) [Example 35, 1-(4-Fluorobenzyl)-3-(4-(4-hydroxyphenyl)azepan-1-yl)pyrrolidin-2-one]	17
O=C1C(N2CCC(c3ccc(O)cc3)CC2)CCCN1Cc1ccccc1 (single isomer, unassigned) [Example 41b, 1′-Benzyl-4-(4-hydroxyphenyl)-[1,3′-bipiperidin]-2′-one]	200
O=C1C(N2CCC(c3ccc(O)cc3)C(O)C2)CCN1Cc1ccc(F)cc1 (centres unmarked) [Example 8, 1-(4-Fluorobenzyl)-3-(3-hydroxy-4-(4-hydroxyphenyl)piperidin-1-yl)pyrrolidin-2-one]	420
Cc1ccc(CN2CCC(N3CCC(c4ccc(O)cc4)CC3)C2=O)cc1F (centres unmarked) [Example 19, 1-(3-Fluoro-4-methylbenzyl)-3-(4-(4-hydroxyphenyl)piperidin-1-yl)pyrrolidin-2-one]	3.9
O=C1C(N2CCC(c3ccc(O)cc3)C(F)(F)C2)CCN1Cc1ccc(C(F)(F)F)cc1 (stereo in doubt) [Example 99, P-2, (3S)-3-(3,3-Difluoro-4-(4-hydroxyphenyl)piperidin-1-yl)-1-(4-(trifluoromethyl)benzyl)-pyrrolidin-2-one]	22
C[C@@H](c1ccc(F)cc1)N1CCC(N2CCC(c3ccc(O)cc3)C(F)(F)C2)C1=O (single isomer, unassigned) [Example 56, P-2]	1400
O=C1C(N2CCC(c3ccc(O)c(F)c3)CC2)CCN1Cc1ccccc1 (centres unmarked) [Example 30, 1-Benzyl-3-(4-(3-fluoro-4-hydroxyphenyl)piperidin-1-yl)pyrrolidin-2-one]	4.7
O=C1[C@@H](N2CCC(c3ccc(O)cc3)CC2)CCN1Cc1ccc(Cl)cc1 [Example 18a, (S)-1-(4-Chlorobenzyl)-3-(4-(4-hydroxyphenyl)piperidin-1-yl)pyrrolidin-2-one]	170
O=C1[C@H](N2CCC(c3ccc(O)cc3)C(F)(F)C2)CCN1Cc1ccccc1 (stereo partly drawn) [Example 102, P-2, (3R)-1-Benzyl-3-(3,3-difluoro-4-(4-hydroxyphenyl)piperidin-1-yl)pyrrolidin-2-one]	30
O=C1C(N2CCCC(c3ccc(O)cc3)C2)CCCN1Cc1ccc(Cl)cc1 (centres unmarked) [Example 42, 1′-(4-Chlorobenzyl)-3-(4-hydroxyphenyl)-[1,3′-bipiperidin]-2′-one]	720

The next lines start with the values.

Ki [nM]	Structure (SMILES)
3.4	Cc1ccc(CN2CC[C@@H](N3CC[C@H](c4ccc(O)cc4)[C@@H](F)C3)C2=O)cc1F [Example 47, P-4, (R)-3-((3R,4R)-3-fluoro-4-(4-hydroxyphenyl)piperidin-1-yl)-1-(3-fluoro-4-methylbenzyl)pyrrolidin-2-one]
150	Cc1ccc(CN2CCCC(N3CCC(c4ccc(O)cc4)CC3)C2=O)cc1 (centres unmarked) [Example 38, 4-(4-Hydroxyphenyl)-1′-(4-methylbenzyl)-[1,3′-bipiperidin]-2′-one]
4.7	O=C1[C@H](N2CCC(c3ccc(O)cc3)CC2)CCN1Cc1ccc(F)c(F)c1 [Example 6b, (R)-1-(3,4-Difluorobenzyl)-3-(4-(4-hydroxyphenyl)piperidin-1-yl)pyrrolidin-2-one]
490	O=C1[C@@H](N2CC[C@@H](c3ccc(O)cc3)[C@H](F)C2)CCN1Cc1ccc(Cl)cc1 [Example 64, (S)-1-(4-Chlorobenzyl)-3-((3S,4S)-3-fluoro-4-(4-hydroxyphenyl)piperidin-1-yl)pyrrolidin-2-one]
10	Cc1ccc(CN2CC[C@@H](N3CC(c4ccc(O)cc4)C3)C2=O)cc1 [Example 28b, (R)-3-(3-(4-Hydroxyphenyl)azetidin-1-yl)-1-(4-methylbenzyl)-pyrrolidin-2-one]
33	Cc1ccccc1CN1CCC(N2CC[C@H](c3ccc(O)cc3)[C@@H](F)C2)C1=O (stereo partly drawn) [Example 76, 3-((3R,4R)-3-Fluoro-4-(4-hydroxyphenyl)piperidin-1-yl)-1-(2-methylbenzyl)pyrrolidin-2-one]
≥ 5000	O=C1C(N2CCCC(c3ccc(O)cc3)C2)CCN1Cc1ccc(F)cc1 (centres unmarked) [Example 4, 1-(4-Fluorobenzyl)-3-(3-(4-hydroxyphenyl)piperidin-1-yl)pyrrolidin-2-one]
2	O=C1[C@H](N2CC[C@@H](c3ccc(O)c(F)c3)[C@H](F)C2)CCN1Cc1ccc(Cl)cc1 [Example 116, (R)-1-(4-chlorobenzyl)-3-((3S,4S)-3-fluoro-4-(3-fluoro-4-hydroxyphenyl)piperidin-1-yl)pyrrolidin-2-one]
6.7	O=C1[C@@H](N2CC[C@@H](c3ccc(O)cc3)[C@H](F)C2)CCN1c1ccc(OC(F)F)c(Cl)c1 [Example 62, (S)-1-(3-Chloro-4-(difluoromethoxy)phenyl)-3-((3S,4S)-3-fluoro-4-(4-hydroxyphenyl)-piperidin-1-yl)pyrrolidin-2-one]
41	O=C1[C@@H](N2CCC(c3ccc(O)cc3)CC2)CCN1Cc1ccccc1 [Example 13a, (S)-1-Benzyl-3-(4-(4-hydroxyphenyl)piperidin-1-yl)pyrrolidin-2-one]
1700	O=C1[C@@H](N2CC[C@H](c3ccc(O)cc3)[C@@H](F)C2)CCN1Cc1ccc(F)cc1 [Example 48, P-2]
180	O=C1C(N2CCC(c3ccc(O)cc3)C(F)(F)C2)CCN1Cc1ccc(OC(F)F)cc1 (centres unmarked) [Example 105, 3-(3,3-Difluoro-4-(4-hydroxyphenyl)piperidin-1-yl)-1-(4-(difluoromethoxy)benzyl)-pyrrolidin-2-one]
44	C[C@@H](c1ccccc1)N1CC[C@@H](N2CCC(c3ccc(O)cc3)CC2)C1=O [Example 33b, (R)-3-(4-(4-Hydroxyphenyl)piperidin-1-yl)-1-((S)-1-phenylethyl)pyrrolidin-2-one]
5.3	O=C1[C@H](N2CCC(c3ccc(O)cc3)CC2)CCN1Cc1ccc(O)cc1 [Example 25b, (R)-1-(4-Hydroxybenzyl)-3-(4-(4-hydroxyphenyl)piperidin-1-yl)pyrrolidin-2-one]
1.4	O=C1[C@H](N2CCC(c3ccc(O)cc3)CC2)CCN1Cc1ccc(F)cc1 [Example 2b, (R)-1-(4-Fluorobenzyl)-3-(4-(4-hydroxyphenyl)piperidin-1-yl)pyrrolidin-2-one]
990	O=C1C(N2CCC(c3ccc(O)cc3)CC2)CCCN1Cc1ccccc1 (single isomer, unassigned) [Example 41a, 1′-Benzyl-4-(4-hydroxyphenyl)-[1,3′-bipiperidin]-2′-one]
